Test results taken from EP0123485A1, “Colon-specific prodrug, the preparation and uses thereof” (priority 1983, dated 1984).
Read-outs that look alike come from different tables or passages of the source.

Key:
[1] = Rate of hydrolysis in homogenized cecal contents; settings: cecal contents; 1.0 mM prodrug, 37 C; release of free steroid by HPLC
From the text: (§1) (The entire small intestine was divided into two, equal length segments to give PSI and DSI.) Gastrointestinal contents were obtained from male, Sprague-Dawley rats (300-400 g) which had been maintained on a stock diet (Purina rat chow) and water ad libitum. The intestinal contents of each section were pooled from four animals for each assay. […] Following removal, the contents were quickly weighed, then diluted to 100 milliliters (stomach, PSI, and DSI) or 200 milliliters (cecum) with cold 0.01 M phosphate buffer, pH 7.0. […] Homogenates were then stored on ice (ca 30 min). […] The reaction was run at 37 °C in a shaking water bath. The reaction was stopped after 10, 20, or 30 min by addition of 0.2 N NaOH (0.25 milliliters).
(§2) Stomach and PSI contents were diluted to 50 mL with 0.01 M phosphate buffer, pH 7.0, DSI contents to 25 mL, and cecal contents to 200 mL, prior to homogenization. The homogenates (2.1 mL of stomach, PSI, and DSI and 1.7 mL of cecum) were added to the appropriate substrate solution (0.01 M phosphate buffer, pH 7.0) to give 1.0 mM substrate in a total volume of 2.5 mL. At various times up to 30 min, aliquots (0.3 mL) were removed and quenched with MeOH (4.7 mL). After centrifugation (5,000 g, 10 min), the samples were diluted (1:1) with 0.01 M KH2PO4 and 20 microliters of the resulting solution was injected directly onto the HPLC column for analysis.

[2] = Rate of hydrolysis in homogenized stomach contents; settings: 1.0 mM prodrug, 37 C, release of free steroid by HPLC
[3] = Incubation with homogenized rat feces; assay type: in vitro ADME
Procedure: Glucosides 1 and 2 (5.0 mg) were also incubated at 37 °C with homogenized rat feces (0.5 g/10 milliliters 0.01 M phosphate buffer, pH 7.5). The feces were obtained from rats maintained on a high cellulose diet. […] Aliquots (0.2 milliliters) were removed and quenched with MeOH (3.66 milliliters). After centrifugation (5,000g, 10 min), the samples were passed through membrane filters (0.45 micrometer pore, Versapor 450, Gelman Sciences, Inc.). They were then diluted (1:1) with 0.01 M KH2PO4. Twenty microliters of the resulting solution were injected directly onto the HPLC column for analysis.

[4] = Recovery of steroid glycoside and free steroid from intestinal contents and tissues after intragastric administration; assay type: in vivo, Sprague-Dawley rats; settings: for Recovery from the cecum / Recovery from the small intestine: average of 4 animals; for animals in which the administered dose reached the cecum by the time of sacrifice: sixteen rats per glucoside, sacrifice at 3-6 h; for site of absorption of the free steroid: free steroid given orally (control experiments, FIGURE 4)
Procedure: Male, Sprague-Dawley rats (ca 250 g) were maintained on laboratory rat chow and water ad lib. These rats were fasted overnight (16 hr.) prior to administration of glucoside or free steroid. Water bottles were removed from the cages at least 30 min prior to drug administration. Prednisolone glucoside, 2, (7.5 mg) or dexamethasone glucoside, 1, (7.5 mg) was administered by gastric intubation as a solution (0.5 mL) of water/95% ethanol (3:1). Prednisolone, 4, (5.25 mg) or dexamethasone, 3, (5.1 mg) was administered as a solution (0.5 mL) of water/95% ethanol (1:1). After the appropriate interval of time -3, 4, 5 or 6 hr.- the animals were sacrificed by carbon dioxide anesthesia followed by thoractomy. The small intestine and cecum were removed and cut into segments. Contents were separated from the tissues by rinsing the segments with cold, 0.9% saline (5.0 mL). The contents were immediately diluted to 30 mL with methanol. The tissues were suspended in 0.01 M KH2P04 (5.0 mL). Then an internal standard, either prednisolone, 4, or dexamethasone, 3, depending on the experimental steroid, was added to all the samples. Both the contents and tissues were then homogenized with a Polytron Homogenizer (Brinkman Inst. Co.) at med. speed for 1-2 min. The contents were then diluted to 40 mL total volume with methanol. The tissues were diluted to 25 mL total volume with methanol. All the samples were centrifuged (5,000 g, 15 min) and then the supernatant solutions were passed through membrane filters (0.45 micrometers, Versapor 800). The samples (1.4 mL) were then diluted with 0.01 M KH2PO4 (0.6 mL) and 20 microliters of the resulting solution injected directly onto the HPLC column for analysis.

[5] = Rate of hydrolysis in homogenized distal small intestine contents; settings: for Sp. act. / Tot. act.: DSI contents, 1.0 mM prodrug, 37 C, release of free steroid by HPLC; for hydrolysis by DSI contents, comparison in words: homogenates of DSI contents
From the text: as §1, §2

[6] = Rate of hydrolysis in homogenized proximal small intestine contents; settings: PSI contents; 1.0 mM prodrug, 37 C; release of free steroid by HPLC
[7] = KM(app) and Vmax determinations (Eadie-Hofstee plots); assay type: in vitro ADME, rat; settings: prodrug 0.5-48 micromolar, 0.8 mL cecal homogenate, 15 min, 37 C, release of free steroid by HPLC
Procedure: KM(app) and VMax Determinations. The KM(app)-Vmax for the hydrolysis of p-NP-glc and p-NP-gal were determined using pooled cecal homogenates (200 mL) as described above. A range of substrate (56-1000 micromolar; final volume 2.25 mL) concentrations, spanning their apparent KM, was used for each reaction. The amount of cecal homogenate used was 0.04 mL. Velocities were obtained, in duplicate, at 37 °C in a shaking water bath and the reaction stopped by addition of 0.2 N NaOH (0.25 mL) after 15 min. Release of p-nitrophenol was measured spectrophotometrically at 403 nm. Eadie-Hofstee plots were used to determine the KM(app) (micromolar) and Vmax (micromolar/min/g) of both reactions. The wet weight (g), measured immediately after removal and pooling, was used throughout.
Again, cecal contents from four rats were pooled, weighed, diluted (100 mL, 0.01 M phosphate buffer, pH 7.0) and homogenized. A range of substrate concentrations (0.5-48 micromolar, final volume 2.5 mL) spanning the apparent KM, was used for each reaction. The amount of cecal homogenate used was 0.8 mL. Reactions were run, in duplicate, at 37°C in a shaking water bath. After 15 min, the reactions were stopped by removing aliquots (0.3 mL) and quenching them with MeOH (4.7 mL). […] Again, Eadie-Hofstee plots were used to determine the KM(app) and VMax.

[8] = system: beta-glucosidase (EC 3.2.1.21, from almonds); test: Hydrolysis by commercial beta-glucosidase; assay type: biochemical; settings: 37 C, acetate buffer pH 5.0
Procedure: Prednisolone glucoside, 2, (5.0 mg) or dexamethasone glucoside, 1, (5.0 mg) was incubated at 37 °C in an […] acetate buffer, pH 5.0 (10.0 mL) with beta-glucosidase (EC 3.2.1.21, from almonds, one unit liberates 1.0 micromole of glucose from salicin per min at pH 5.0 at 370C). Prednisolone glucoside, 2, and dexamethasone glucoside, 1, were treated with 50 and 500 units of enzyme, respectively. At various times, aliquots (0.1 mL) were removed and quenched with methanol (9.9 mL).

physchem = assay type: physicochemical
Procedure: The partitioning of prodrugs and free steroids between n-octanol and an aqueous phase (0.01 phosphate buffer, pH 7.0) were determined at 37 °C. Both octanol and buffer were saturated with the relevant aqueous or organic phase before use. […] The intitial concentration of steroid was 10 mM dissolved in the organic phase. The amount of glycoside and free steroid in the aqueous phase at equilibrium was measured spectrophotometrically at 239 nm for the dexamethasone and fludrocortisone compounds and 242 nm for the prednisolone and hydrocortisone compounds. The concentration of glycoside or free steroid in the octanol phase was determined by difference.

[9] = 4 h after administration of 7.5 mg of glucoside 1
[10] = 5 h after administration of 7.5 mg of glucoside 1
[11] = 6 h after administration of 7.5 mg of glucoside 1
[12] = in vivo, po, rat, 7.5 mg glucoside intragastric, estimated from unhydrolyzed glucoside in lower small intestine at 4 h, read-out: part of an oral dose of glucoside that reached (was delivered to) the cecum
[13] = rat, in vivo, po, 7.5 mg, 4 h after 7.5 mg glucoside, rat, read-out: administered dose recovered from the lower small intestine contents unhydrolyzed
[14] = 0.01 m phosphate buffer, pH 7, Log P

For `CC1CC2C3CCC4=CC(=O)C=CC4(C)C3(F)C(O)CC2(C)C1(O)C(=O)COC1OC(CO)C(O)C(O)C1O` [Compound 1, 9 alpha-Fluoro-11 beta, 17 alpha-dihydroxy-16 alpha-methyl-3, 20-dioxopregna-l, 4-dien-21-yl beta-D-glucopyranoside], the Sp. act. [1] was 141 nmoles/min/g wet weight, the Tot. act. [1] was 3.5 µmol/min and the Sp. act. [2] was 6.8 nmoles/min/g wet weight. For the same compound, the Tot. act. [2] was 0.12 µmol/min, the “hydrolysis on incubation with homogenized rat feces” value ([3]; 37 C, 0.01 M phosphate buffer pH 7.5) was “extensive hydrolysis” and the “Recovery from the cecum” value ([4]; 3 h after administration of 7.5 mg of glucoside 1) was 0.21 mg. For the same compound, the “Recovery from the small intestine” value ([4]; 3 h after intragastric administration of 7.5 mg of glucoside 1) was 5.61 mg^a, the “Recovery from the cecum” value [4, 9] was 0.02 mg and the “Recovery from the small intestine” value [4, 9] was 5.00 mg. For the same compound, the “Recovery from the cecum” value [4, 10] was 0.23 mg, the “Recovery from the small intestine” value [4, 10] was 0.24 mg and the “Recovery from the cecum” value [4, 11] was 0.04 mg. For the same compound, the “Recovery from the small intestine” value [4, 11] was 0.94 mg, the recovery at 4 h [4, 12] was roughly 60% and the “time to reach the colon” value ([4]; intragastric administration to rats) was 4 to 5 h. For the same compound, the “part of an oral dose of glucoside that reached (was delivered to) the cecum” value ([4]; rat, 7.5 mg glucoside intragastric, estimated from unhydrolyzed glucoside in lower small intestine at 4 h, listed as glucoside 1) was “about half of the dose”, the recovery at 4 h [4, 13] was 59% and the recovery at 3 h ([4]; rat, in vivo, po, 3 h after oral administration, rat, read-out: dose recovered (intact) from the intestinal lumen) was 78%. For the same compound, the “animals in which the administered dose reached the cecum by the time of sacrifice” value [4] was “eleven of the sixteen animals”, the Sp. act. [5] was 19.3 nmoles/min/g wet weight and the Tot. act. [5] was 0.34 µmol/min. The Sp. act. ([5]; listed as glucoside 1) was 19 nmoles/min/g wet weight, the “hydrolysis by DSI contents, comparison in words” value (“hydrolysis by DSI contents” for short) [5] was “more resistant to hydrolysis than the other prodrugs” and the “hydrolysis by DSI contents” value ([5]; listed as glucoside 1) was “about three times slower”. It also gave a Sp. act. [6] of 11.0 nmoles/min/g wet weight, a Tot. act. [6] of 0.07 µmol/min and a Km ([7]; listed as glucoside 1) of 2.5 µM. The Vmax ([7]; listed as glucoside 1) was 2.2 µM/min/g.
For `CC12C=CC(=O)C=C1CCC1C2C(O)CC2(C)C1CCC2(O)C(=O)COC1OC(CO)C(O)C(O)C1O` [Compound 2, 11 beta, 17 alpha-Dihydroxy-3, 20-dioxopregna-l, 4-dien-21-yl beta-D-glucopyranoside], the Sp. act. [1] was 265 nmoles/min/g wet weight, the Tot. act. [1] was 6.6 µmol/min and the Sp. act. [2] was 6.8 nmoles/min/g wet weight. For the same compound, the Tot. act. [2] was 0.12 µmol/min, the “hydrolysis on incubation with homogenized rat feces” value ([3]; pH 7.5) was “extensive hydrolysis” and the recovery at 4 h [4, 12] was less than 15%. The “time to reach the colon” value ([4]; rat, in vivo) was 4 to 5 h, the recovery at 4 h [4, 13] was 14.8% and the “animals in which the administered dose reached the cecum by the time of sacrifice” value [4] was “eight of sixteen animals”. For the same compound, the “relative rate of hydrolysis by commercial beta-glucosidase” value ([8]; listed as Glucoside 2) was “several orders of magnitude faster than was glucoside 1”, the “relative rate of hydrolysis by commercial beta-glucosidase” value ([8]; listed as glucoside 2) was “much more active towards glucoside 2 than towards glucoside 1” and the Sp. act. [5] was 56.8 nmoles/min/g wet weight. The Tot. act. [5] was 1.0 µmol/min, the Sp. act. [6] was 12.2 nmoles/min/g wet weight and the Tot. act. [6] was 0.07 µmol/min. It also gave a Km ([7]; listed as glucoside 2) of 4.5 µM and a Vmax ([7]; listed as glucoside 2) of 2.6 µM/min/g.
In the case of `C[C@]12C=CC(=O)C=C1CC[C@@H]1[C@@H]2[C@@H](O)C[C@@]2(C)[C@H]1CC[C@]2(O)C(=O)CO` [Compound 4, 11 beta, 17 alpha-21-Trihydroxy-3, 20-dioxpregna-1,4-diene, reference compound], the logD at 0.5 h (physchem; n-octanol / 0.01 M phosphate buffer pH 7.0, 37 C, agitated 30 min, read-out: Log P) is reported as 1.55, the “site of absorption of the free steroid” value ([4]; rat) is reported as “absorbed almost completely from the small intestine” and the “site of absorption of the free steroid” value ([4]; rat, listed as prednisolone) is reported as “absorbed almost exclusively from the small intestine”. The “part of the oral dose of free steroid that reached the cecum” value ([4]; rat, in vivo, po) was “less than 1%” and the “free steroid recovered in the cecum, as equivalent of the administered dose” value ([4]; rat, in vivo, po, 5 h) was 11%.
In the case of `C[C@]12CCC(=O)C=C1CC[C@H]1[C@@H]3CC[C@](O)(C(=O)CO)[C@@]3(C)C[C@H](O)[C@@]12F` [Compound 8, 9 alpha-Fluoro-11 beta, 17 alpha-21-trihydroxy-3, 20-dioxopregna-4-ene], the logD at 0.5 h (physchem; [14]) is reported as 1.73.
Work on `CC12C=CC(=O)C=C1CCC1C2C(O)CC2(C)C1CCC2(O)C(=O)COC1OC(CO)C(OC2OC(CO)C(O)C(O)C2O)C(O)C1O` [Compound 13, 11 beta, 17 alpha-Dihydroxy-3, 20-dioxopregna-1,4-diene-21-yl beta-D-cellbioside] yielded a logD at 0.5 h (physchem; [14]) of -0.56, a Sp. act. [1] of 109 nmoles/min/g wet weight and a Tot. act. [1] of 2.2 µmol/min. It also gave a Sp. act. [2] of 7.5 nmoles/min/g wet weight, a Tot. act. [2] of 0.01 µmol/min and a Sp. act. [5] of 32.5 nmoles/min/g wet weight. For the same compound, the Tot. act. [5] was 0.64 µmol/min, the “hydrolysis by DSI contents” value [5] was “only half that of glucoside 2 and one-fourth that of galactoside 10” and the Sp. act. [6] was 26.0 nmoles/min/g wet weight. It also gave a Tot. act. [6] of 0.11 µmol/min.
